Measurements reported in US20260285817A1, “CRYSTALLINE FORMS OF A 1H-1,2,3-TRIAZOLE-4-CARBOXYLIC ACID COMPOUND” (CANTERO THERAPEUTICS, INC., priority 2023, published 2026).
Entries after “also recorded” stand apart in the source; their conditions may differ. Where two headings read alike, the source gives them in different places.

Experiments:
[1] = 24-hr pH solubility and form stability in six pH buffers at 25° C.; assay type: physicochemical; conditions: for solubility at 24 h: aqueous buffer
Description: (§1) High Performance Liquid Chromatography (HPLC): HPLC of Agilent 1260 with DAD detector was employed to detect the purity and solubility, with the methods shown in Table 1.
After shaking at 100 rpm at 25° C. for 24 hrs, the suspensions were centrifuged. The solids were analyzed by XRPD for crystal form, and the filtrates of supernatants were analyzed by HPLC for solubility and by pH meter for pH value.

[2] = Solubility in 20% EtOH in water and 20% DMAc in water at room temperature; assay type: physicochemical; conditions: organic solvent or mixture, 20~60 mins
Description: as §1
Solubility in Various Solvents: Solubility of Form A was also measured in 20% EtOH in water and 20% DMAc in water at room temperature (rt). Specifically, about 3 mg Form A sample was added to 0.6 mL solvent.

[3] = Solubility in water at various temperatures; assay type: physicochemical; conditions: for Final Form: XRPD
Description: as §1
Solubility in Water at various Temperature: Solubility test was conducted for Form A in water at various temperatures. Specifically, about 3~5 mg Form A sample was added to 1 mL water. After stirring at 750 rpm at desired temperatures (25/35/50/60/70° C.) for 1~2 hrs, solids were isolated for XRPD to check the crystal form and the supernatants were collected for a HPLC analysis to detect the solubility.

[4] = Dynamic vapor sorption (DVS) hygroscopicity of Form A; assay type: physicochemical
Description: In some embodiments, the crystalline form described herein is further characterized by a dynamic vapor sorption (DVS). In some embodiments, the DVS is recorded using a sample weight of a few milligrams (e.g., about 20 mg) on an ADVENTURE series DVS at 25° C. under nitrogen. In some embodiments, the sample is subjected to the cycle as follows: 1) ambient relative humidity (RH) to 90% RH at a rate of 10% RH and from 90% RH to 95% RH in a rate of 5% RH; 2) 95% RH to 90% RH at a rate of 5% RH and 90% RH to 0% RH at a rate of 10% RH; and 3) 0% RH to 90% RH at a rate of 10% RH and 90% RH to 95% RH in a rate of 5% RH.
Dynamic Vapor Sorption (DVS): Dynamic vapor sorption was performed with an ADVENTURE series DVS at 25° C. under nitrogen blow. Approximately 20 milligrams of material was used. Samples were analyzed using method below: • 1. Ambient relative humidity to 95% RH at 10% RH (5% from 90% RH to 95% RH) • 2. 95% RH to 0% RH at 10% RH (5% RH from 95% RH to 90% RH) • 3. 0% RH to 95% RH at 10% RH (5% RH from 90% RH to 95% RH)
To understand the hygroscopicity of Form A, dynamic vapor sorption (DVS) was employed to measure the mass change as a function of relative humidity at 25° C. Form A was equilibrated at ambient relative humidity before analysis.

[5] = Critical water activity study, competitive slurry in THF/H2O at rt, XRPD
Description: Critical water activity (aw) study was performed for mono-sodium salt Form A (monohydrate), Form E (hemihydrate) and Form D (anhydrate) to investigate the form relationship. It was conducted via competitive slurry in THF/H2O with a series of aw (0~1) at rt. Specifically, ~10 mg staring material was suspended in 0.4 mL THF/H2O (aw of 0, 0.2, 0.4, 0.6, 0.8 and 1.0) at rt. After equilibrium for 2 hrs, collect the filtrates to the HPLC vials containing Form A and Form D with equivalent mass ratio. After stirring magnetically at rt for 1~2 days, collect the solids for XRPD analysis.

O.O=C([O-])c1nn[nH]c1Oc1ccc(-c2ccc(C3CC(F)(F)C3)cc2)cc1.[Na+] [Form A, sodium 5-((4′-(3,3-difluorocyclobutyl)-[1,1′-biphenyl]-4-yl)oxy)-1H-1,2,3-triazole-4-carboxylate monohydrate]
solubility at 24 h ([1]; pH 7.0 buffer, 25° C., read-out: Solubility): 55 µg/mL
solubility at 24 h ([1]; pH 8.0 buffer, 25° C., read-out: Solubility): 404 µg/mL
solubility at 24 h ([1]; pH 10.0 buffer, 25° C., read-out: Solubility): 4830 µg/mL
solubility ([1]; pH 2.0/4.0/6.0, 25° C.): limited solubility
Final pH (measured) ([1]; pH 2.0 buffer, 25° C.): pH 2.5
solubility ([1]; pH 2.0 buffer, 25° C.): <LOD
Form Change ([1]; pH 2.0 buffer, 25° C., XRPD of solids): Yes
Form Change ([1]; pH 2.0~7.0, 25° C.): new diffractive peaks
Final pH (measured) ([1]; pH 4.0 buffer, 25° C.): pH 4.4
solubility ([1]; pH 4.0 buffer, 25° C.): <LOD
Form Change ([1]; pH 4.0 buffer, 25° C., XRPD of solids): Yes
Final pH (measured) ([1]; pH 6.0 buffer, 25° C.): pH 6.2
solubility ([1]; pH 6.0 buffer, 25° C.): <LOD
Form Change ([1]; pH 6.0 buffer, 25° C., XRPD of solids): Yes
Final pH (measured) ([1]; pH 7.0 buffer, 25° C.): pH 7.1
Form Change ([1]; pH 7.0 buffer, 25° C., XRPD of solids): Yes
Form Change ([1]; pH 8.0/10.0, 25° C.): no form change
Final pH (measured) ([1]; pH 8.0 buffer, 25° C.): pH 7.4
Form Change ([1]; pH 8.0 buffer, 25° C., XRPD of solids): No
Final pH (measured) ([1]; pH 10.0 buffer, 25° C.): pH 8.4
Form Change ([1]; pH 10.0 buffer, 25° C., XRPD of solids): No
solubility at 24 h ([1]; ph buffer, pH 2.0~10.0, 25° C., read-out: solubility as a function of pH): < 4800 µg/mL
solubility ([2]; 20% DMAc in water): 3300 µg/mL
solubility ([2]; 20% EtOH in water): 1900 µg/mL
solubility ([3]; 25~70° C., read-out: solubility as a function of temperature): 1100 to 2300 µg/mL
solubility ([3]; 25° C., 1~2 hrs, read-out: Solubility): 1100 µg/mL
Final Form ([3]; 25° C.): Forms A + C
solubility ([3]; 35° C., 1~2 hrs, read-out: Solubility): 1300 µg/mL
solubility ([3]; 50° C., 1~2 hrs, read-out: Solubility): 1940 µg/mL
solubility ([3]; 60° C., 1~2 hrs, read-out: Solubility): 1860 µg/mL
Final Form ([3]; 60° C.): Forms A + C
solubility ([3]; 70° C., 1~2 hrs, read-out: Solubility): 2320 µg/mL
form transformation in water ([3]; various temperatures): partial conversion to Form C
water uptake ([4]; 25° C./80% RH compared to starting point (60% RH)): negligible water uptake
weight gain, DVS cycle ([4]; 60% RH to 80% RH, 25° C.): less than 0.03%
weight loss, first dynamic vapor desorption cycle ([4]; 80% RH to 60% RH, 25° C.): less than 0.03%
hygroscopicity ([4]; DVS, 25° C., monohydrate): non-hygroscopic; also recorded: non-hygroscopicity
form stability under humidity ([4]; broad humidity range, DVS 25° C.): good form stability
water lost ([4]; relative humidity below 10% RH, 25° C.): ~ 0.6%
relative form stability ([5]; water, aw of 1.0, rt): more stable than Form D

O=C([O-])c1nn[nH]c1Oc1ccc(-c2ccc(C3CC(F)(F)C3)cc2)cc1.[Na+]
relative form stability ([5]; THF/H2O, aw of 0~0.8, rt): more stable than monohydrate Form A and anhydrate Form D
